The values that follow come from patent US20230009608A1, “GRK2 INHIBITORS AND USES THEREOF” (Cygnal Therapeutics, Inc., priority 2020, published 2023).

Some results are limits rather than exact numbers.

In assay [1] the target is T1, GRK2 (Homo sapiens, UniProt P25098).
T1 construct: purchased SignalChem A14-10G
T1 sequence (P25098 1-689): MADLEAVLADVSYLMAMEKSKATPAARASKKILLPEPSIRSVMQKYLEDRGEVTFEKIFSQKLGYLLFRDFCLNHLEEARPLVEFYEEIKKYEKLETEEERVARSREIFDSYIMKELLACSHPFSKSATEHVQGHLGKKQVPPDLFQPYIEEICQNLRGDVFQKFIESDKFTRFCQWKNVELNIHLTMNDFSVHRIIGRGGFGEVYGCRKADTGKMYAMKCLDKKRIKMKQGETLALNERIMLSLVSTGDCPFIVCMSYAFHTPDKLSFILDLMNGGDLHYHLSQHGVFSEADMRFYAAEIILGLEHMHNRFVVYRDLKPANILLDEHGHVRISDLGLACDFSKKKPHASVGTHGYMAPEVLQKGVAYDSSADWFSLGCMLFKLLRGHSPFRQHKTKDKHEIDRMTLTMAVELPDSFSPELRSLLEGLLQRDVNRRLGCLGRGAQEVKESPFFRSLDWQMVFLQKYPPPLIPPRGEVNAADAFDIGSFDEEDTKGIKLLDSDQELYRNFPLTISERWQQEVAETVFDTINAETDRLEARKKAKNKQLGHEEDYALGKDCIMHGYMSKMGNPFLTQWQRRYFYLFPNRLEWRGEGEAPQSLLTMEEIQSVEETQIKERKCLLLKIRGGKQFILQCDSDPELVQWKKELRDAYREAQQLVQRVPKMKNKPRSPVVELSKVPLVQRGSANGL
The assay is described as follows: GRK2 Inhibition Assay (TR-FRET, Example 7). In kind it is biochemical. The protocol:
Enzyme GRK2 (1 nM final concentration) was diluted in 25 mMv HEPES, 10 mM MgCl2, 2 mM DTT, 0.01% Tween-20, and 1 mM EGTA. Then the GRK2 mixture was added into ProxiPlate-384 white plate and pre-incubated for 30 min with test compounds at room temperature. ATP (7 μM final concentration) and Ulight TopoIIα (50 nM final concentration) were added into the assay plate to initiate the reaction and the mixture was incubated at room temperature for 90 min. Then, Eu anti-TopoIIα (0.12 nM final concentration), BSA (0.01% final concentration), and EDTA (11 mMv final concentration) in LANCE assay buffer were added into each well. After 60 min incubation time at room temperature, TR-FRET signal was measured by EnVision plate reader.
A general note: TR-FRET usually uses a lanthanide donor and a delayed reading to cut background.

The subject of assay [2] is PAXF1657 control empty vector cell line. The assay is described as follows: 7-day proliferation assay, PAXF1657 control empty vector cell line (Example 9). In kind it is cell-based. The following applies: 168 h; Cell Line: PAXF1657 empty vector (EV) cell line; 7-day; read-out: C: 7-day proliferation assay: IC50 GeoMean. In outline: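 Isogenic PAXF1657 pairs differing in GRK2 level (stable cDNA overexpression or CRISPR knockout, each with matched control) are seeded and allowed to attach overnight. Inhibitors span 30 μM-0.0002 μM in 0.3% DMSO for 3 plus 4 days at 37° C, 5% CO2, with a medium change between.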

In assay [3] the target is T1, GRK2. The assay is described as follows: ADPGlo GRK2 Inhibition Assay (Example 8). In kind it is biochemical. The settings on record: Enzyme Assay A, ADPGlo (Example 8); read-out: A: Enzymatic GRK2: IC50 (nM) (Example 8). The gist of the method: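 GRK2 (15 nM 2× enzyme solution) was preincubated 15 min with compound, then reacted 180 min at room temperature with 2× mix of 20 μM ATP plus GRKtide in HEPES pH 7.5, MgCl2, Tween-20, DTT. ADP was detected by ADP-Glo luminescence. Percent inhibition was normalised to enzyme and no-enzyme controls, with dose-response curves from threefold dilutions starting at 100 μM.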
(In general: ADP-Glo first removes unused ATP, then detects ADP through luciferase.)

The mark [4] stands for this setting: Enzyme Assay B, TR-FRET (Example 7), read-out: B: Enzymatic GRK2: IC50 (nM) (Example 7).
[5] abbreviates: TR-FRET GRK2 enzyme assay, read-out: B: Enzymatic GRK2: IC50 (nM) (Example 7).

On to `CNCCn1c(CNc2cccc(C(=O)NCc3c(F)cccc3F)c2)nnc1-c1ccncn1`, for which the IC50 on GRK2 [1] (setting [4]) stood at 1400 nM.
Take `CN(C)CCCn1c(CNc2cccc(C(=O)NCc3c(F)cccc3F)c2)nnc1-c1ccncn1`: on GRK2 [1] (setting [4]), the IC50 was found to be 170 nM.
In the case of `CNCCCn1c(CNc2cccc(C(=O)NCc3c(F)cccc3F)c2)nnc1-c1ccncn1`, the IC50 at GRK2 [1] (setting [4]) is 660 nM.
Still for that read-out and setting: to `O=C(NCc1c(F)cccc1F)c1cccc(NCc2nnc(-c3ccncn3)n2CCCO)c1` belongs 47 nM; to `CNc1cc(-c2nnc(CNc3cccc(C(=O)NCc4c(F)cccc4F)c3)n2C)ncn1`, 4400 nM.
With `Cc1ncccc1CNC(=O)c1cccc(NCc2nnc(-c3ccncn3)n2C)c1`, the IC50 came to 1.49 µM in assay [2] and 16 nM at GRK2 [3].
Turning to `O=C(NCc1cccc(OS(=O)(=O)F)c1)c1cccc(NCc2nnc(-c3ccncc3)[nH]2)c1`, the IC50 in assay [2] was over 30 µM; on GRK2 [1], 26 nM.
As for `O=C(NCc1ccccc1OS(=O)(=O)F)c1cccc(NCc2nnc(-c3ccncc3)[nH]2)c1`, the IC50 in assay [2] was determined as 7.64 µM; against GRK2 [1], 12 nM.
With `O=C(NCCc1ccccc1OS(=O)(=O)F)c1cccc(NCc2nnc(-c3ccncc3)[nH]2)c1`, the IC50 amounted to 13.1 µM in assay [2] and 73 nM against GRK2 [1].
The compound `O=C(NCCc1cccc(OS(=O)(=O)F)c1)c1cccc(NCc2nnc(-c3ccncc3)[nH]2)c1` returned an IC50 at GRK2 [1] of 210 nM.
In the case of `O=C(NCc1ccc(OS(=O)(=O)F)cc1)c1cccc(NCc2nnc(-c3ccncc3)[nH]2)c1`, the values for the IC50 (in assay [2]; against GRK2 [1]) were over 30 µM and 20 nM, respectively.
`O=C(NC1(c2ccccc2)CCOCC1)c1cccc(NCc2nnc(-c3ccncc3)[nH]2)c1`: the IC50 at GRK2 [1] (setting [4]) was 330 nM.
Turning to `O=C(NC1(c2ccccc2)CCOCC1)c1cccc(NCc2nnc(-c3ccncc3)n2CCO)c1`, on GRK2 [1] (setting [4]), the IC50 worked out at 130 nM.
Take `Cn1c(CNc2cccc(C(=O)N[C@H]3CCOc4ccccc43)c2)nnc1-c1ccncc1Cl`: on GRK2 [1] (setting [4]), the IC50 amounted to 170 nM.
As to `CN(Cc1cccnc1C(F)(F)F)C(=O)c1cccc(NCc2nnc(-c3ccncn3)n2C)c1`, on GRK2 [1] (setting [4]), the IC50 was over 10000 nM.
Turning to `CCc1cnccc1CNC(=O)c1cccc(NCc2nnc(-c3ccncn3)n2CCO)c1`, the IC50 at GRK2 [1] (setting [4]) is 0.82 nM.
For the compound `CCc1cnccc1CNC(=O)c1cccc(NCc2nnc(-c3ccncn3)n2CCCO)c1`, the IC50 on GRK2 [1] (setting [4]) is 5.5 nM.
In the case of `CCc1cnccc1CNC(=O)c1ccnc(NCc2nnc(-c3ccncn3)n2C)c1`, the IC50 on GRK2 [1] (setting [4]) was found to be 15 nM.
`Cn1c(CNc2cc(C(=O)NCc3cccc4c3OCC4)ccn2)nnc1-c1ccncn1`: at GRK2 [1] (setting [4]), the IC50 turned out to be 12 nM.
The same measure, in the same setting: with `O=C(NC1(c2ccccc2)CCOCC1)c1cccc(NCc2nnc(-c3ccncn3)n2CCO)c1` the figure was 6.3 nM; with `COc1ncccc1CNC(=O)c1cccc(NCc2nnc(-c3ccncn3)n2CCO)c1`, 2.4 nM.
Still for that read-out and setting: to `CNCCCn1c(CNc2cccc(C(=O)NCc3cccnc3C(F)(F)F)c2)nnc1-c1ccncn1` belongs 280 nM.
As for `C#Cc1cc(CNC(=O)c2cccc(NCc3nnc(-c4ccncc4)[nH]3)c2)cc(OS(=O)(=O)F)c1`, the figures for the IC50 (in assay [2]; on GRK2 [3]) were 10.8 µM and 34.9 nM, respectively.
Take `C#Cc1ccc(OS(=O)(=O)F)cc1CNC(=O)c1cccc(NCc2nnc(-c3ccncc3)[nH]2)c1`: the IC50 in assay [2] turned out to be 7.44 µM; on GRK2 [3], 28.4 nM.
Consider `Cc1ccc2c(c1)OCC[C@H]2NC(=O)c1cccc(NCc2nnc(-c3ccncn3)n2C)c1`, for which the IC50 was 0.648 µM in assay [2] and 9.99 nM on GRK2 [3].
The like results for `Cc1ccc2c(c1)OCC[C@@H]2NC(=O)c1cccc(NCc2nnc(-c3ccncn3)n2C)c1` were, in that order, 2.58 µM and over 1000 nM.
`Cn1c(CNc2cccc(C(=O)N[C@H]3COc4c(Cl)cccc43)c2)nnc1-c1ccncn1`: the IC50 at GRK2 [1] (setting [5]) was found to be 7.8 nM.
On to `Cn1c(CNc2cccc(C(=O)N[C@@H]3COc4c(Cl)cccc43)c2)nnc1-c1ccncn1`, for which, on GRK2 [1] (setting [5]), the IC50 came to 28 nM.
Turning to `Cn1c(CNc2cccc(C(=O)N[C@H](C#N)c3c(F)cccc3Cl)c2)nnc1-c1ccncn1`, at GRK2 [1] (setting [5]), the IC50 was 5.7 nM.
Take `Cn1c(CNc2cccc(C(=O)N[C@@H](C#N)c3c(F)cccc3Cl)c2)nnc1-c1ccncn1`: the IC50 on GRK2 [1] (setting [5]) came out at 5.1 nM.
For the compound `Cn1c(CNc2cccc(C(=O)N[C@@H](C#N)c3ccccc3Br)c2)nnc1-c1ccncn1`, the IC50 at GRK2 [1] (setting [5]) was found to be 4.1 nM.
Turning to `Cn1c(CNc2cccc(C(=O)N[C@H](C#N)c3ccccc3Br)c2)nnc1-c1ccncn1`, the IC50 on GRK2 [1] (setting [5]) stood at 4.5 nM.
As for `Cn1c(CNc2cccc(C(=O)N[C@@H](C#N)c3ccccc3C(F)(F)F)c2)nnc1-c1ccncn1`, the IC50 at GRK2 [1] (setting [5]) stood at 3.5 nM.
Still for that read-out and setting: to `COc1ccc([C@H](C#N)NC(=O)c2cccc(NCc3nnc(-c4ccncn4)n3C)c2)c(OC)c1` belongs 68 nM; to `COc1ccc([C@@H](C#N)NC(=O)c2cccc(NCc3nnc(-c4ccncn4)n3C)c2)c(OC)c1`, 7.8 nM; to `COc1ccccc1[C@H](NC(=O)c1cccc(NCc2nnc(-c3ccncn3)n2C)c1)c1nccn1C`, 100 nM.
Take `CCc1cnccc1CNC(=O)c1cccc(NCc2nnc(-c3ccncn3)n2[C@H]2CCC[C@@H](NC)C2)c1`: the IC50 at GRK2 [1] (setting [5]) stood at 3900 nM.
As for `CCc1cnccc1CNC(=O)c1cccc(NCc2nnc(-c3ccncn3)n2[C@@H]2CCC[C@@H](NC)C2)c1`, the IC50 at GRK2 [1] (setting [5]) came to 1000 nM.
For the compound `CCc1cnccc1CNC(=O)c1cccc(NCc2nnc(-c3ccncn3)n2[C@H]2CC[C@@H](NC)C2)c1`, the IC50 at GRK2 [1] (setting [5]) was found to be 190 nM.
Consider `CCc1cnccc1CNC(=O)c1cccc(NCc2nnc(-c3ccncn3)n2[C@H]2CC[C@H](NC)C2)c1`, for which the IC50 on GRK2 [1] (setting [5]) was 920 nM.
Same read-out and setting: with `CCc1cnccc1CNC(=O)c1cccc(NCc2nnc(-c3ccncn3)n2[C@@H]2CC[C@@H](NC)C2)c1` the figure was 230 nM; with `CCc1cnccc1CNC(=O)c1cccc(NCc2nnc(-c3ccncn3)n2[C@@H]2CC[C@H](NC)C2)c1`, 110 nM.
For the compound `Cc1cccnc1CNC(=O)c1cccc(NCc2nnc(-c3ccncn3)n2C)c1` [drawing 264], the values for the IC50 (in assay [2]; at GRK2 [3]) were 1.61 µM and 14 nM, respectively.
For the compound `Cn1c(CNc2cccc(C(=O)NCc3ccncc3Cl)c2)nnc1-c1ccncn1` [drawing 276], the results for the IC50 (in assay [2]; at GRK2 [3]) were 4.06 µM and 9.1 nM, respectively.
As for `CN1CCC(NC(=O)c2cccc(NCc3nnc(-c4ccncn4)n3C)c2)c2ccccc21` (stereo not shown) [drawing 321], the IC50 in assay [2] turned out to be 9.34 µM; on GRK2 [3] it was 37 nM.
The like results for `Cn1c(CNc2cccc(C(=O)NCc3ccnc(OCC(F)(F)F)c3)c2)nnc1-c1ccncn1` [drawing 339] were, in that order, 3.76 µM and 17 nM.
In the case of `C[C@H](NC(=O)c1cccc(NCc2nnc(-c3ccncn3)n2C)c1)c1cccnc1` [drawing 345], the values for the IC50 (in assay [2]; on GRK2 [3]) were over 8.57 µM and 420 nM, respectively.
On to `Cn1c(CNc2cccc(C(=O)NCc3cccc4cccnc34)c2)nnc1-c1ccncn1` [drawing 359], for which the IC50 in assay [2] stood at 3.64 µM; at GRK2 [3], 61 nM.
As for `COc1cccc(C(C)NC(=O)c2cccc(NCc3nnc(-c4ccncn4)n3C)c2)c1` (stereo not shown) [drawing 381], the IC50 in assay [2] was determined as 0.377 µM; on GRK2 [3] it was 12 nM.
In the case of `CC1Cc2cc(CNC(=O)c3cccc(NCc4nnc(-c5ccncn5)n4C)c3)ccc2O1` (stereo not shown) [drawing 401], the values for the IC50 (in assay [2]; at GRK2 [3]) were 3.37 µM and 22 nM, respectively.
Consider `Cn1ccnc1C(NC(=O)c1cccc(NCc2nnc(-c3ccncc3)[nH]2)c1)C1CC1` (stereo not shown) [drawing 485], for which the results for the IC50 (in assay [2]; on GRK2 [3]) were 5.51 µM and 10 nM, respectively.
For the compound `Cn1c(CNc2cccc(C(=O)N[C@H]3COc4ccccc43)c2)nnc1-c1ccncn1` [drawing 850], on GRK2 [1] (setting [5]), the IC50 turned out to be 3.4 nM.
